Like-named read-outs stand apart in the source and are kept apart here. Starred links: 1 amine or outer side, 2 acyl side, 3 side chain; linkers in the order of their positions; H or OH if unused. Positions of bridges follow the written chain, without caps; N, C: chain ends. Non-standard residues stand in square brackets, D forms with d. Residues, ends and D or L forms follow the SMILES beside them. ξ: configuration not given here. *: point of attachment. X4 = COc1cc2cc(c1Cl)N(C)C(=O)C[C@H](OC(=O)[C@H](C)N(C)C(=O)CCN(C)*)[C@]1(C)O[C@H]1[C@H](C)[C@@H]1C[C@@](O)(NC(=O)O1)[C@H](OC)/C=C/C=C(\C)C2; TBMB = c1c(C[*:1])cc(C[*:3])cc1C[*:2]; PABC = O=C(OCc1ccc(N[*:1])cc1)[*:2]; Glutaryl = O=C(CCCC(=O)[*:2])[*:1]; ξ1Nal = NC(Cc1cccc2ccccc12)C(=O)O; Cit = NC(=O)NCCC[C@H](N)C(=O)O; ξY = NC(Cc1ccc(O)cc1)C(=O)O; ξTle = CC(C)(C)C(N)C(=O)O; ξF = NC(Cc1ccccc1)C(=O)O; ξE = NC(CCC(=O)O)C(=O)O; ξD = NC(CC(=O)O)C(=O)O; ξN = NC(=O)CC(N)C(=O)O; ξC = NC(CS)C(=O)O; βAla = NCCC(=O)O; ξA = CC(N)C(=O)O; Sar = CNCC(=O)O
Legend:
[1] = tested on: EBC-1; assay: cells; conditions: EBC-1, 72 hours
Excerpt: (§1) Details of the initial cell plating procedure are described in Table 3.
(§2) Data Details for Tables 5 and 6. Inhibition %=(Max−Sample value)/(Max−Min)*100.
(§3) The IC50 curves were generated by 4 Parameter Logistic Model—Sigmoidal Dose-Response Model as follows: Y=Bottom+(Top−Bottom)/(1+10^((log EC50-X)*HillSlope)).

[2] = tested on: HCC1806; assay: cells; conditions: HCC1806, 72 hours
Excerpt: as §1, §2, §3

[3] = tested on: HCT15; assay: cells; conditions: HCT15, 72 hours
Excerpt: as §1, §2, §3

[4] = tested on: HT1080; assay: cells; conditions: HT1080, 72 hours
Excerpt: as §1, §2, §3

[5] = tested on: HT29; assay: cells; conditions: HT29, 72 hours
Excerpt: as §1, §2, §3

[6] = tested on: MDA-MB-231; assay: cells; conditions: MDA-MB-231, 72 hours
Excerpt: as §1, §2, §3

[7] = tested on: MOLP-8; assay: cells; conditions: MOLP-8, 72 hours
Excerpt: as §1, §2, §3

[8] = tested on: NCI-H1975; assay: cells; conditions: NCI-H1975, 72 hours
Excerpt: as §1, §2, §3

[9] = tested on: NCI-H292; assay: cells; conditions: NCI-H292, 72 hours
Excerpt: as §1, §2, §3

[10] = tested on: PC-3; assay: cells; conditions: PC-3, 72 hours
Excerpt: as §1, §2, §3

[11] = tested on: SNU-16; assay: cells; conditions: SNU-16, 72 hours
Excerpt: as §1, §2, §3

[12] = tested on: HT1080 cells; assay: Cytotoxicity in HT1080 cells in presence and absence of 1 mM bacitracin (ATPlite, 24 hour exposure)
Protocol: HT1080 cells (ATCC, via LGC, BIC918) Maintained in EMEM media (Sigma M2279)+10% FBS (Sigma Code F7524)+4 mM L-Glu (Invitrogen Cat 25030-024)
I-1a and Toxins with Bacitracin—24 or 72 Hour Exposure in 96 Well Plates
DB seeded cells in normal media, 75 μL in 96 well clear plates, ˜24 hours previous.
HT1080—7.5 k cells/well: 50% confluent upon dosing.
Dilute in media 1:42.85=5 μL DMSO dilute+209 μL media=>use 15 μL per well
This gives a 5 μM top concentration for BDCs in assay
Add 10 µL of media±bacitracin (2 plates of each)−leave for 1 hr
(§4) Bacitracin=1 mM final concentration. This requires a 10 mM concentration with no DMSO.
Add 15 μL treatment per well as in Table 19, below.
Seal plates with gas permeable membrane and incubate at 37° C.
Washout HT1080 plates with 2×150 μL PBS at 24 h and add 100 μL fresh media
At t=72 h, equilibrate ATPlite reagent to room temperature. Add 10 ml buffer to each vial of lyophilized substrate. Add 100 μL reagent per well. Seal with PCR seal and cover to protect from light. Shake for 20 mins before reading luminescence

[13] = tested on: L540 cells; assay: Cytotoxicity in L540 cells in presence and absence of 1 mM bacitracin (ATPlite, 72 hour exposure); type: cell-based
Protocol: L540 cells (DSMZ # ACC72, BIC5121), maintained in RPMI-1640 medium (Sigma # R8758)+20% heat-inactivated serum
L540—20 k cells/well: 40% confluent upon dosing.
as §4
Add 100 μL reagent per well. […] Shake for 20 mins before reading luminescence

[14] = Mortality, morbidity and body weight in HT1080 xenograft study (Example 13); type: in vivo, mouse
Protocol: All the procedures related to animal handling, care and the treatment in the study were performed following the guidance of the Association for Assessment and Accreditation of Laboratory Animal Care (AAALAC). At the time of routine monitoring, the animals were daily checked for any effects of tumor growth and treatments on normal behavior such as mobility, food and water consumption (by looking only), body weight gain/loss (body weights were measured every day), eye/hair matting and any other abnormal effect as stated in the protocol. Death and observed clinical signs were recorded on the basis of the numbers of animals within each subset.
Body weight was monitored regularly as an indirect measure of toxicity.

## COc1cc2cc(c1Cl)N(C)C(=O)C[C@H](OC(=O)[C@H](C)N(C)C(=O)CCSSC)[C@]1(C)O[C@H]1[C@H](C)[C@@H]1C[C@@](O)(NC(=O)O1)[C@H](OC)/C=C/C=C(\C)C2 [DM1-Sme]
[1]
  Top inhibition%: 65%
[1]; read-out: Re IC50
  IC50: 0.32 nM
[2]
  Top inhibition%: 88%
[2]; read-out: Re IC50
  IC50: 0.62 nM
[3]
  Top inhibition%: 94%
[3]; read-out: Re IC50
  IC50: 0.94 nM
[4]
  Top inhibition%: 99%
[4]; read-out: Re IC50
  IC50: 0.22 nM
[5]
  Top inhibition%: 82%
[5]; read-out: Re IC50
  IC50: 0.68 nM
[6]
  Top inhibition%: 49%
[6]; read-out: Re IC50
  IC50: 0.79 nM
[7]
  Top inhibition%: 92%
[7]; read-out: Re IC50
  IC50: 0.21 nM
[8]
  Top inhibition%: 64%
[8]; read-out: Re IC50
  IC50: 1.52 nM
[9]
  Top inhibition%: 77%
[9]; read-out: Re IC50
  IC50: 0.27 nM
[10]
  Top inhibition%: 54%
[10]; read-out: Re IC50
  IC50: 0.18 nM
[11]
  Top inhibition%: 98%
[11]; read-out: Re IC50
  IC50: 0.77 nM
[12]; 24 hour exposure, 1 mM bacitracin vs none
  Fold shift with bacitracin: 5.9
[12]; read-out: IC50 with 1 mM bacitracin, 24 hour exposure, + 1 mM bacitracin (PDI inhibitor)
  IC50: 0.41 nM
[12]; read-out: Standard IC50, 24 hour exposure (high MT1 expression), no block
  IC50: 0.07 nM
[13]; 72 hour exposure (low/no MT1 expression), no block, read-out: Standard IC50
  IC50: 9.6 nM
[13]; read-out: IC50 with 1 mM bacitracin, 72 hour exposure, + 1 mM bacitracin
  IC50: 12 nM

## COc1cc2cc(c1Cl)N(C)C(=O)C[C@H](OC(=O)[C@H](C)N(C)C(=O)CCN(C)C(=O)OCc1ccc(NC(=O)[C@H](CCCNC(N)=O)NC(=O)[C@@H](NC(=O)CCCC(=O)NCCC(=O)N(C)CC(=O)N(C)CC(=O)N(C)CC(=O)N(C)CC(=O)N(C)CC(=O)N(C)CC(=O)N(C)CC(=O)N(C)CC(=O)N(C)CC(=O)N(C)CC(=O)NC(C)C(=O)NC3CSCc4cc5cc(c4)CSCC(NC(=O)C(C)NC(=O)C(Cc4cccc6ccccc46)NC(=O)C(CCC(=O)O)NC(=O)C(CC(N)=O)NC(=O)C(C)NC3=O)C(=O)NC(C)C(=O)NC(CC(=O)O)C(=O)NC(Cc3ccccc3)C(=O)NC(Cc3ccc(O)cc3)C(=O)NC(CC(=O)O)C(=O)NC(C(C)(C)C)C(=O)NC(C(N)=O)CSC5)C(C)C)cc1)[C@]1(C)O[C@H]1[C@H](C)[C@@H]1C[C@@](O)(NC(=O)O1)[C@H](OC)/C=C/C=C(\C)C2 (stereo partly drawn) [Compound I-8] ({X4-PABC-Cit-Val-Glutaryl-βAla}-[Sar][Sar][Sar][Sar][Sar][Sar][Sar][Sar][Sar][Sar][ξA][ξC][ξA][ξN][ξE][ξ1Nal][ξA][ξC][ξA][ξD][ξF][ξY][ξD][ξTle][ξC]-NH2; linker 12-18-25 via TBMB)
[14]; 1 mg/kg biw
  mouse with severe tumor ulceration: 1/3
[14]; 3 mg/kg biw
  mouse died at day 14: 1/3
